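Protocol summary: plate cells (96-well), add compound at 5 concentrations, incubate 48 h, interpolate endpoints linearly. GI50: concentration for 50% inhibition of growth.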 Calls of active or inactive are those of the source. Cut-off read from the data, not from the text of the source: active = GI50 up to about 1.1 µM and inactive = higher. *1 amine or outer side, *2 acyl side, *3 side chain or, on linkers, in order; H or OH if unused. Where a SMILES comes first, the peptide text is derived from it. Bridges are numbered along the chain shown (N, C = ends). [ ]: non-standard residue; d: D form. The star is where a group is joined. X56 = CC(C)C(C)C(C(=O)[*:2])N(C)[*:1]; Picolinoyl(3-OH) = O=C(c1ncccc1O)*; NMePhg = CN[CH](C(=O)O)c1ccccc1; Hyp = O=C(O)[CH]1C[CH](O)CN1; Sar = CNCC(=O)O
Tests used:
Assay in all cases: DTP human tumour cell line panel, 48 h
[1] = test system: OVCAR-5
[2] = test system: SF-268
[3] = test system: DMS-273
[4] = test system: MCF7
[5] = test system: NCI-H226
[6] = test system: NCI/ADR-RES
[7] = test system: XF498
[8] = test system: SNB-78
[9] = test system: HOP-62
[10] = test system: SN12C
[11] = test system: A498
[12] = test system: UACC-257
[13] = test system: M14
[14] = test system: 786-0
[15] = test system: Hs-578T
[16] = test system: MDA-MB-435
[17] = test system: DU-145
[18] = test system: MDA-MB-231
[19] = test system: PC-3
[20] = test system: T47D

| Structure (SMILES) | GI50 [1] | GI50 [2] | GI50 [3] | GI50 [4] | GI50 [5] | GI50 [6] | GI50 [7] | GI50 [8] | GI50 [9] | GI50 [10] | GI50 [11] | GI50 [12] | GI50 [13] | GI50 [14] | GI50 [15] | GI50 [16] | GI50 [17] | GI50 [18] | GI50 [19] | GI50 [20] |
| --- | --- | --- | --- | --- | --- | --- | --- | --- | --- | --- | --- | --- | --- | --- | --- | --- | --- | --- | --- | --- |
| CC(C)CC1NC(=O)C(NC(=O)c2ncccc2O)C(C)OC(=O)C(c2ccccc2)N(C)C(=O)C(C)NC(=O)C(C(C)C(C)C)N(C)C(=O)CN(C)C(=O)C2CC(O)CN2C1=O (stereo unspecified) ({Picolinoyl(3-OH)}-TL[Hyp][Sar][X56]A[NMePhg]; ester 1-C; configuration not given here) | > 125 µM (inactive) | 51.3 µM (inactive) | 34.8 µM (inactive) | 13.7 µM (inactive) | 71.1 µM (inactive) | > 125 µM (inactive) | 35.6 µM (inactive) | > 125 µM (inactive) | > 125 µM (inactive) | 65.8 µM (inactive) | > 107 µM (inactive) | 58.2 µM (inactive) |  |  |  |  |  |  |  |  |
| CCCCC#CS(=O)(=O)C(F)(F)F | > 100 µM (inactive) | > 72.4 µM (inactive) | 48 µM (inactive) | 52.6 µM (inactive) | > 100 µM (inactive) | 47.3 µM (inactive) | 56.9 µM (inactive) | > 100 µM (inactive) | > 61.5 µM (inactive) | > 100 µM (inactive) | 44.9 µM (inactive) | 12.9 µM (inactive) |  |  |  |  |  |  |  |  |
| COC1/C=C\C=C(/C)C(=O)NC2=CC(=O)C=C(C2=O)C(OC)C(C)CC(OC)C(OC)C(C)/C=C(/C)C1OC(N)=O (stereo unspecified) | 15.3 µM (inactive) | 11.5 µM (inactive) | 12 µM (inactive) | 1.28 µM (inactive) | 21.8 µM (inactive) | 5.73 µM (inactive) | 1.87 µM (inactive) | 2.14 µM (inactive) | 2.92 µM (inactive) | 5.25 µM (inactive) | 15.1 µM (inactive) | 1.37 µM (inactive) |  |  |  |  |  |  |  |  |
| CCCSCC(P(=O)(O)O)P(=O)(O)O.NC1CCCCC1 | > 100 µM (inactive) | > 100 µM (inactive) | > 100 µM (inactive) | > 100 µM (inactive) | > 100 µM (inactive) | > 100 µM (inactive) | > 100 µM (inactive) | > 100 µM (inactive) | > 100 µM (inactive) | > 100 µM (inactive) | 8.59 µM (inactive) | > 100 µM (inactive) |  |  |  |  |  |  |  |  |
| CC1=CCC2(C#N)CCC1C2O (stereo unspecified) | > 100 µM (inactive) | > 100 µM (inactive) | 19.7 µM (inactive) |  | > 100 µM (inactive) |  | > 100 µM (inactive) | > 100 µM (inactive) | > 100 µM (inactive) | > 100 µM (inactive) | > 100 µM (inactive) | > 100 µM (inactive) | > 100 µM (inactive) | 64.1 µM (inactive) |  |  |  |  |  |  |
| CCOC(=O)C(CC(C)C)NC(=O)C(Cc1ccc(N(CCCl)CCCl)cc1)NC(C)=O (stereo unspecified) | 12.7 µM (inactive) | 4.07 µM (inactive) | 4.47 µM (inactive) | 3.69 µM (inactive) | 14.4 µM (inactive) | 18.1 µM (inactive) | 0.406 µM (active) | 3.93 µM (inactive) | 3.01 µM (inactive) | 2.45 µM (inactive) | 15.7 µM (inactive) | 3.74 µM (inactive) | 2.7 µM (inactive) | 2.02 µM (inactive) | 5.12 µM (inactive) | 3.41 µM (inactive) | 5.93 µM (inactive) | 5.86 µM (inactive) | 15.8 µM (inactive) | 2.17 µM (inactive) |
| COc1ccccc1/N=N/c1c(-c2ccccc2)nn(C(=O)CC(=O)Nc2ccccc2Cl)c1-c1ccccc1 | > 100 µM (inactive) | > 100 µM (inactive) | > 100 µM (inactive) |  | > 100 µM (inactive) |  | > 100 µM (inactive) | > 100 µM (inactive) | > 100 µM (inactive) | > 100 µM (inactive) | > 100 µM (inactive) | > 100 µM (inactive) | > 100 µM (inactive) | > 100 µM (inactive) |  |  |  |  |  |  |
| COC(=O)c1nc(-c2ccc3c(n2)C(=O)C(=N)C(OC)=C3O)c(N)c(-c2ccc(OC)c(OC)c2O)c1C | 2.14 µM (inactive) | 0.769 µM (active) | 0.303 µM (active) | 0.153 µM (active) | 0.324 µM (active) | 1.3 µM (inactive) | 1.18 µM (inactive) | 2.35 µM (inactive) | 0.194 µM (active) | 1.16 µM (inactive) | 1.61 µM (inactive) | 0.419 µM (active) |  |  |  |  |  |  |  |  |
| O=C(/C=C/c1c(O)ccc2ccccc12)c1cccc2ccccc12 | > 100 µM (inactive) | > 100 µM (inactive) | > 100 µM (inactive) |  | > 57.9 µM (inactive) |  | > 100 µM (inactive) | > 100 µM (inactive) | > 100 µM (inactive) | > 100 µM (inactive) | > 100 µM (inactive) | > 100 µM (inactive) | > 100 µM (inactive) | > 69.7 µM (inactive) |  |  |  |  |  |  |
